The record followed here is ChEMBL document CHEMBL2331400, “Structure-based design and evaluation of naphthalene diimide G-quadruplex ligands as telomere targeting agents in pancreatic cancer cells” (J Med Chem, 2013).

Active and inactive are the calls of the source. The calls are words filed in the database; no cut-off is given here.

The subject of experiment [1] is MIA PaCa-2. The experiment in a line: Downregulation of MPG gene expression in human MIAPaCa2 cells at 20 to 160 nM after 24 hrs by qPCR analysis relative to solvent-treated control. The class given is functional, cell-based.
For experiment [2], the system named is MIA PaCa-2. The experiment in a line: Inhibition of telomerase activity in human MIAPaCa2 cells assessed as telomere elongation up to 10 uM after 7 days by TRAP-LIG assay. The class given is cell-based.
Experiment [3] concerns A549. The experiment in a line: Cytotoxicity against human A549 cells assessed as growth inhibition after 96 hrs by SRB assay. To be noted: A549, 96 h. The class given is functional, cell-based. On the technique in general: Sulforhodamine B stains cellular protein and so reports cell mass.
Experiment [4] relates to MIA PaCa-2. Description: Upregulation of TP73 gene expression in human MIAPaCa2 cells at sublethal concentration after 24 hrs by qPCR analysis. The class given is functional, cell-based. (In general: Quantitative PCR measures a nucleic acid by following its amplification.)
Experiment [5] concerns MIA PaCa-2. The experiment in a line: Upregulation of PPARG gene expression in human MIAPaCa2 cells at 20 to 80 nM after 24 hrs by qPCR analysis relative to solvent-treated control. The class given is functional.
In experiment [6] the test system is MIA PaCa-2. The experiment in a line: Downregulation of POT1 gene expression in human MIAPaCa2 cells at 20 to 80 nM after 24 hrs by qPCR analysis relative to solvent-treated control. In kind it is functional, cell-based.
The subject of experiment [7] is MIA PaCa-2. Description: Upregulation of CDKN1A gene expression in human MIAPaCa2 cells at cytotoxic concentration after 24 hrs by qPCR analysis. In kind it is functional, cell-based.
Experiment [8] concerns WI-38. Description: Cytotoxicity against human WI38 cells assessed as growth inhibition after 96 hrs by SRB assay. The conditions noted are these: WI-38, 96 h. The class given is cell-based.
In experiment [9] the test system is MIA PaCa-2. Description: Downregulation of HUS1 gene expression in human MIAPaCa2 cells at 20 to 160 nM after 24 hrs by qPCR analysis relative to solvent-treated control. In kind it is functional, cell-based.
Experiment [10] deals with MIA PaCa-2. The experiment in a line: Induction of ATR/[…] gene expression in human MIAPaCa2 cells by qPCR analysis. In kind it is functional, cell-based.
The test system of experiment [11] is MIA PaCa-2. The experiment in a line: Induction of senescence in human MIAPaCa2 cells at 3.3 to 6.6 nM after 7 days by beta-galactosidase assay relative to vehicle-treated control. In kind it is functional.
Experiment [12] has as its system MIA PaCa-2. Description: Downregulation of NTHL1 gene expression in human MIAPaCa2 cells at 160 nM after 24 hrs by qPCR analysis. The class given is functional, cell-based.
In experiment [13] the test system is MIA PaCa-2. The experiment in a line: Downregulation of RASSF1 gene expression in human MIAPaCa2 cells at 20 to 80 nM after 24 hrs by qPCR analysis relative to solvent-treated control. The class given is functional.

`CN1CCN(CCCNc2cc3c4c(c(NCCCN5CCN(C)CC5)cc5c4c2C(=O)N(CCCN2CCOCC2)C5=O)C(=O)N(CCCN2CCOCC2)C3=O)CC1`: the result in experiment [1], in [6], in experiment [7], in experiment [9] and in experiment [12] was Active. Further, in experiment [2], the inhibition result is “inactive”. Moreover, the IC50 (usually the concentration at which inhibition is half-maximal) in experiment [3] is less than 10 nM; in experiment [8] it was 230 nM. Besides, the result in experiment [4] and in experiment [10] was inactive. Besides, the “fold change (FC)” value in experiment [5] and in experiment [13] was more than 2 throughout. In [11], this compound had an Activity of 50%.
